Experimental data taken from patent US9434687B2, “Detection of synthetic cannabinoids” (priority 2011, dated 2016).
Where two headings read alike, the source gives them in different places.

Experiments:
Format in all cases: binding, sheep
[1] = tested on: IgG fraction of antiserum raised to Immunogen I; conditions: Antibody to Immunogen I; cross-reactants at 100 ng/ml; 1000 ng/ml; standard JWH-018
Protocol: (§1) An aqueous solution of each immunogen was formulated with Freund's Complete Adjuvant (FCA) to form an emulsion consisting of 2 mg/ml*immunogen in 50% (v/v) FCA. Three sheep were immunised with this emulsion (1° immunisation), 0.25 ml being intramuscularly injected at each of four sites in the flank of each animal. Subsequent immunizations (boosts) contained 1 mg/ml*immunogen. All boosts were emulsified in 50% (v/v) Freund's Incomplete Adjuvant (FIA) and were administered in the same manner as the 1° immunisation, at monthly intervals. Blood sampling took place 7 to 14 days after each boost. *The general procedure for immunogen administration is outlined above, however, it was necessary to deviate from this protocol in some cases, due to reduced immunogen concentrations (Immunogens II, IV, VII and VIII) and/or amount available (Immunogen VIII). Any deviations from the protocol described are outlined in Table 5 below and highlighted in bold.
(§2) The wells of an enhanced binding 96 well polystyrene microtiter plate were coated with IgG fraction of antiserum raised to Immunogen I or II, diluted in 10 mM Tris, pH8.5 (125 μl/well). The appropriate antibody coating dilution was determined using standard ELISA checkerboard techniques. The plate was incubated overnight at 4° C., washed 4 times over 10 minutes with Tris buffered saline containing Tween 20 (TBST) and tapped dry. Standard solutions (JWH-018 for Immunogens I and II) were applied at 0, 0.625, 1.25, 2.5, 5, 10, 20 and 40 ng/ml and 50 μl of each was added to the appropriate wells. 75 μl of conjugate (appropriate hapten-HRP) diluted in Tris buffer (pH 7.2) containing EDTA, D-mannitol, sucrose, thimerosal and BSA, was added to each of the wells. The appropriate dilution of conjugate was also determined using standard ELISA checkerboard techniques. The plate was incubated at 25° C. for 1 hour. Excess unbound conjugate was removed by washing 6 times over a 10 minute period with TBST. 125 μl of tetramethylbenzidine (TMB) substrate solution was added to each well of the plate that was then incubated for 20 minutes in the dark at room temperature. The reaction was terminated by addition of 125 μl 0.2M H2SO4 to each well. The absorbance was then measured at 450 nm using a microtiter plate reader. The data are inputted to a computer program called ‘KC Junior’. It is a 4 parameter fit curve and allow the calculation of concentrations between the standard runs. This program is used to calculate the IC50s by dividing the 0 ng/ml OD value by 2 and obtaining the concentration value from the curve for this OD.
In a similar manner to that described above, the wells of a 96-well microtiter plate were coated with the IgG fraction of the antiserum raised to Immunogens I or II. Standard solutions (JWH-018 for Immunogen I and II) were applied at 0, 0.625, 1.25, 2.5, 5, 10, 20 and 40 ng/ml and conjugate was employed as detection reagent.
(§3) The data set out in Tables 7-10 are generated using antibodies raised against the indicated Immunogens in a competitive binding assay with the indicated tracers, using the indicated standards
(§4) In order to determine the specificity of the competitive ELISAs, standard solutions of a range of structurally similar synthetic cannabinoids and their metabolites were prepared in TBST.
(§5) Using the calibration curves generated and employing a single level of cross reactants, these were used to determine the cross-reactivity of each immunoassay with these substances. These are the standards used for the IC50 and cross-reactivity data generation: […]

[2] = tested on: IgG fraction of antiserum raised to Immunogen II; assay: Competitive ELISA, antibody RS1833B12 to Immunogen II, tracer ESC4555 (Example 36); conditions: Antibody to Immunogen II; cross-reactants at 100 ng/ml; 1000 ng/ml; standard JWH-018
Protocol: as §1
as §2, with “The” for “The wells of an enhanced binding 96 well polystyrene microtiter plate were coated with IgG fraction of antiserum raised to Immunogen I or II, diluted in 10 mM Tris, pH8.5 (125 μl/well). The”, “Standard solutions (JWH-018 for Immunogens I and II) were applied at 0, 0.625, 1.25, 2.5, 5, 10, 20 and 40 ng/ml and 50 μl of each was added to the appropriate wells.” left out, “runs.” for “runs. This program is used to calculate the IC50s by dividing the 0 ng/ml OD value by 2 and obtaining the concentration value from the curve for this OD.”
In a similar manner to that described above, the wells of a 96-well microtiter plate were coated with the IgG fraction of the antiserum raised to Immunogens I or II.
as §3, §5

[3] = tested on: IgG fraction of antiserum raised to Immunogen IV; conditions: Antibody to Immunogen IV; cross-reactants at 100 ng/ml; 1000 ng/ml; standard JWH-018
Protocol: as §1, §2
(§6) In a similar manner to that described above, the wells of a 96-well microtiter plate were coated with the IgG fraction of the antiserum raised to Immunogens IV, VII or VIII. Standard solutions (JWH-018 for Immunogens IV and VIII, JWH-015 for Immunogen VII) were prepared in TBST at 0, 1.25, 2.5, 5, 10, 20, 40 and 80 ng/ml and conjugate was employed as detection reagent.
as §3, §4, §5

[4] = tested on: IgG fraction of antiserum raised to Immunogen VIII; conditions: Antibody to Immunogen VIII; cross-reactants at 100 ng/ml; 1000 ng/ml; standard JWH-018
Protocol: as §1, §2, §6, §3, §4, §5

[5] = tested on: IgG fraction of antiserum raised to Immunogen VII
Protocol: as §1, §2, §6, §3, §4, §5

[6] = Antibody to Immunogen VII, cross-reactants at 100 ng/ml, 1000 ng/ml, standard JWH-015

SMILES	% B/B0 [1] [%]	% B/B0 [2] [%]	% B/B0 [3] [%]	% B/B0 [4] [%]	% B/B0 [5, 6] [%]	% B/B0 ([5]; JWH-015 1.25 ng/ml) [%]	% B/B0 ([5]; JWH-015 2.5 ng/ml) [%]	% B/B0 ([5]; JWH-015 5 ng/ml) [%]	% B/B0 ([5]; JWH-015 10 ng/ml) [%]	% B/B0 ([5]; JWH-015 20 ng/ml) [%]	% B/B0 ([5]; JWH-015 40 ng/ml) [%]	% B/B0 ([5]; JWH-015 80 ng/ml) [%]	IC50 ([5]; Table 9 standard curve, standard concentration which produces 50% B/B0) [ng/mL]
CC(F)CCCn1cc(C(=O)c2cccc3ccccc23)c2ccccc21 (single isomer, unassigned) [AM-2201 N-(4-fluoropentyl) isomer]	3.45	14.60	5.72	15.00	52.70	–	–	–	–	–	–	–	–
CCCCn1c(C)c(C(=O)c2cccc3ccccc23)c2ccccc21 [JWH-016]	20.71	68.73	91.14	75.24	19.31	–	–	–	–	–	–	–	–
CCCCn1cc(C(=O)c2cccc3ccccc23)c2cccc(O)c21 [7-OH JWH-073, JWH-073 7-hydroxyindole metabolite]	5.59	46.05	96.95	94.04	61.78	–	–	–	–	–	–	–	–
CCCCCCn1cc(C(=O)c2cccc3ccccc23)c2ccccc21 [JWH-019]	7.22	15.42	21.96	74.50	70.05	–	–	–	–	–	–	–	–
CCCC(C)n1cc(C(=O)c2cccc3ccccc23)c2ccccc21 (single isomer, unassigned) [JWH-018 N-(1-methylbutyl) isomer]	12.42	51.92	73.49	63.22	67.71	–	–	–	–	–	–	–	–
CCCCCn1c(C)c(C(=O)c2cccc3ccccc23)c2ccccc21 [JWH-007]	32.96	66.06	60.63	61.76	27.77	–	–	–	–	–	–	–	–
CC(O)CCn1cc(C(=O)c2cccc3ccccc23)c2ccccc21 (centres unmarked) [JWH-073 N-(3-hydroxybutyl) metabolite]	3.10	54.52	53.52	94.04	43.39	–	–	–	–	–	–	–	–
CS(=O)(=O)O.Cc1c(C(=O)c2cccc3ccccc23)c2cccc3c2n1[C@H](CN1CCOCC1)CO3 [(+)WIN 55212-2]	17.00	83.87	92.76	107.12	24.08	–	–	–	–	–	–	–	–
CCCCn1cc(C(=O)c2cccc3ccccc23)c2c(O)cccc21 [4-OH JWH-073, JWH-073 4-hydroxyindole metabolite]	39.50	40.14	28.69	26.23	82.82	–	–	–	–	–	–	–	–
O=C(c1cccc2ccccc12)c1cn(CCN2CCOCC2)c2cc(O)ccc12 [JWH-200 6-hydroxyindole metabolite]	7.27	61.65	94.41	83.20	65.52	–	–	–	–	–	–	–	–
O=C(c1ccc(Cl)c2ccccc12)c1cn(CCCCCO)c2ccccc12 [JWH-398 N-(5-hydroxypentyl) metabolite]	48.07	67.49	22.01	51.33	82.97	–	–	–	–	–	–	–	–
CCCCCn1cc(C(=O)c2ccc(C)c3ccccc23)c2ccccc21 [JWH-122]	62.98	44.55	3.94	14.43	89.37	–	–	–	–	–	–	–	–
CCCn1c(C)c(C(=O)c2cccc3ccccc23)c2ccccc21 [JWH-015]	14.67	65.67	93.20	92.27	17.84	75	62	54	43	34	26	20	5.910
O=C(O)CCCn1cc(C(=O)c2cccc3ccccc23)c2ccccc21 [JWH-073 N-butanoic acid metabolite]	6.88	92.20	98.95	94.98	60.01	–	–	–	–	–	–	–	–
CCCCCn1cc(C(=O)c2cccc3cc(C)ccc23)c2ccccc21 [JWH 122 6-methylnaphthyl isomer]	12.55	39.17	8.12	20.46	86.66	–	–	–	–	–	–	–	–
CCCCCn1cc(C(=O)c2ccccc2OC)c2ccccc21 [RCS-4 2-methoxy isomer]	29.14	42.74	15.28	29.32	87.27	–	–	–	–	–	–	–	–
CC(C)CCn1cc(C(=O)c2cccc3ccccc23)c2ccccc21 [JWH 018 N-(3-methylbutyl) isomer]	3.16	30.38	12.75	53.29	48.81	–	–	–	–	–	–	–	–
CCCCCCn1cc(C(=O)c2cccc3ccccc23)c2cc(O)ccc21 [JWH 019 5-hydroxyindole metabolite]	19.81	17.34	93.84	101.57	87.58	–	–	–	–	–	–	–	–
CCCCCn1cc(C(=O)c2cccc3ccccc23)c2cccc(O)c21 [7-OH JWH-018, JWH-018 7-hydroxyindole metabolite]	6.72	34.79	93.31	94.46	68.53	–	–	–	–	–	–	–	–
CN1CCCCC1Cn1cc(C(=O)c2cccc3ccccc23)c2ccccc21 (centres unmarked) [AM-1220]	4.45	77.46	86.93	106.65	49.71	–	–	–	–	–	–	–	–
CC(C)C(C)n1cc(C(=O)c2cccc3ccccc23)c2ccccc21 (single isomer, unassigned) [JWH 018 N-(1,2-dimethylpropyl) isomer]	6.60	71.33	87.11	67.71	62.29	–	–	–	–	–	–	–	–
